Reference: patent US20110086759A1, “CHEMICAL COMPOUNDS” (SYNGENTA CROP PROTECTION, INC., priority 2007, published 2011)

Assays:
Type in all cases: in vivo
[1] = test system: Amaranthus retoflexus (AMARE); experiment: Post-emergence biological efficacy, glasshouse pot test; conditions: Amaranthus retroflexus, 312 h; Rate 1,000 g/ha; post-emergence spray; evaluated after 13 days (100=total damage to plant; 0=no damage to plant); read-out: Percentage damage caused to weed species, post-emergence, AMARE
Outline: (§1)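 Pot-grown weeds were sprayed 8 days after sowing with test compound in acetone/water (50:50) with 0.5% Tween 20 at 1000 or 250 g/ha. Glasshouse at 24/16° C day/night, 14 h light, 65% humidity. Damage scored 0-100 (100 = total damage) after 13 days.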

[2] = test system: Alopecurus myosuroides (ALOMY); experiment: as above; conditions: 312 h, Rate 1,000 g/ha, post-emergence spray, evaluated after 13 days (100=total damage to plant; 0=no damage to plant), read-out: Percentage damage caused to weed species, post-emergence, ALOMY
Outline: as §1

Solanum nigrum (SOLNI) [3] = experiment: as above; conditions: 312 h, Rate 1,000 g/ha, post-emergence spray, evaluated after 13 days (100=total damage to plant; 0=no damage to plant), read-out: Percentage damage caused to weed species, post-emergence, SOLNI
Outline: as §1

Setaria faberi (SETFA) [4] = experiment: as above; conditions: 312 h, Rate 1,000 g/ha, post-emergence spray, evaluated after 13 days (100=total damage to plant; 0=no damage to plant), read-out: Percentage damage caused to weed species, post-emergence, SETFA
Outline: as §1

[5] = test system: Echinochloa crus-galli (ECHCG); experiment: as above; conditions: 312 h, Rate 1,000 g/ha, post-emergence spray, evaluated after 13 days (100=total damage to plant; 0=no damage to plant), read-out: Percentage damage caused to weed species, post-emergence, ECHCG
Outline: as §1

[6] = test system: Ipomea hederaceae (IPOHE); experiment: as above; conditions: Ipomoea hederacea, 312 h; Rate 1,000 g/ha; post-emergence spray; evaluated after 13 days (100=total damage to plant; 0=no damage to plant); read-out: Percentage damage caused to weed species, post-emergence, IPOHE
Outline: as §1

[7] = test system: Amaranthus retoflexus (AMARE); experiment: Pre-emergence biological efficacy, glasshouse pot test; conditions: Amaranthus retroflexus, 312 h; pre-emergence, rate 1,000 g/ha, evaluated after 13 days (100=total damage to plant; 0=no damage); read-out: Percentage damage caused to weed species, AMARE
Outline: (§2)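 One day after sowing in standard soil, pots were sprayed with compound in acetone/water (50:50) with 0.5% Tween 20, at 1000 or 250 g/ha. Plants grew at 24/16° C day/night, 14 h light, 65% humidity. Damage was scored after 13 days (0 = none, 100 = total).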

[8] = test system: Alopecurus myosuroides (ALOMY); experiment: as above; conditions: 312 h, pre-emergence, rate 1,000 g/ha, evaluated after 13 days (100=total damage to plant; 0=no damage), read-out: Percentage damage caused to weed species, ALOMY
Outline: as §2

Solanum nigrum (SOLNI) [9] = experiment: as above; conditions: 312 h, pre-emergence, rate 1,000 g/ha, evaluated after 13 days (100=total damage to plant; 0=no damage), read-out: Percentage damage caused to weed species, SOLNI
Outline: as §2

Setaria faberi (SETFA) [10] = experiment: as above; conditions: 312 h, pre-emergence, rate 1,000 g/ha, evaluated after 13 days (100=total damage to plant; 0=no damage), read-out: Percentage damage caused to weed species, SETFA
Outline: as §2

[11] = test system: Echinochloa crus-galli (ECHCG); experiment: as above; conditions: 312 h, pre-emergence, rate 1,000 g/ha, evaluated after 13 days (100=total damage to plant; 0=no damage), read-out: Percentage damage caused to weed species, ECHCG
Outline: as §2

[12] = test system: Ipomea hederaceae (IPOHE); experiment: as above; conditions: Ipomoea hederacea, 312 h; pre-emergence, rate 1,000 g/ha, evaluated after 13 days (100=total damage to plant; 0=no damage); read-out: Percentage damage caused to weed species, IPOHE
Outline: as §2

Row | Compound | pest or weed control at 1000 g/ha [1] | pest or weed control at 1000 g/ha [2] | pest or weed control at 1000 g/ha (Solanum nigrum (SOLNI) [3]) | pest or weed control at 1000 g/ha (Setaria faberi (SETFA) [4]) | pest or weed control at 1000 g/ha [5] | pest or weed control at 1000 g/ha [6] | pest or weed control at 1000 g/ha [7] | pest or weed control at 1000 g/ha [8] | pest or weed control at 1000 g/ha (Solanum nigrum (SOLNI) [9]) | pest or weed control at 1000 g/ha (Setaria faberi (SETFA) [10]) | pest or weed control at 1000 g/ha [11] | pest or weed control at 1000 g/ha [12]
1 | C=Cc1c(NCc2ccco2)nc(-c2ccc(Cl)c(OC)c2F)nc1C(=O)OC [Compound 139-125, 2-(4-Chloro-2-fluoro-3-methoxyphenyl)-5-ethenyl-4-(furan-2-ylmethylamino)-6-methoxycarbonyl-pyrimidine] | 100% | 80% | 90% | 90% | 80% | 80% | 100% | 70% | 100% | 80% | 80% | 90%
2 | CCCN(Cc1ccccc1)c1nc(C2CC2)nc(C(=O)OC)c1Cl [Compound 145-60] | 90% | 20% | 80% | 70% | 40% | 80% | 100% | 0% | 70% | 10% | 0% | 40%
3 | CCCN(Cc1ccccc1F)c1nc(C2CC2)nc(C(=O)OC)c1Cl [Compound 145-64, 5-Chloro-2-cyclopropyl-4-[N-(2-fluorophenylmethyl)-N-prop-1-yl-amino]-6-methoxy-carbonylpyrimidine] | 90% | 0% | 80% | 40% | 30% | 70% | 70% | 0% | 70% | 0% | 0% | 70%
4 | CCCN(Cc1ccc(C)cc1)c1nc(C2CC2)nc(C(=O)OC)c1Cl [Compound 145-73, 5-Chloro-2-cyclopropyl-6-methoxycarbonyl-4-[N-(4-methyl-phenylmethyl)-N-prop-1-yl-amino]-pyrimidine] | 80% | 10% | 50% | 40% | 20% | 70% | 100% | 30% | 70% | 20% | 30% | 20%
5 | COC(=O)c1nc(C2CC2)nc(N(Cc2ccc(C)o2)C(C)C)c1Cl [Compound 146-135, 5-Chloro-2-cyclopropyl-6-methoxycarbonyl-4-[N-(5-methylfuran-2-ylmethyl)-N-prop-2-yl-amino]-pyrimidine] | 100% | 40% | 90% | 90% | 80% | 100% | 100% | 40% | 100% | 40% | 10% | 100%
6 | COC(=O)c1nc(C2CC2)nc(N(C/C=C/c2ccccc2OC)C(C)C)c1Cl [Compound 146-255, 5-Chloro-2-cyclopropyl-4-{N-isopropyl-N-[3-(2-methoxyphenyl)-prop-2-enyl]-amino}-6-methoxycarbonyl-pyrimidine] | 100% | 20% | 80% | 80% | 30% | 100% | 100% | 10% | 10% | 20% | 10% | 70%
7 | CCCCN(Cc1ccccc1)c1nc(C2CC2)nc(C(=O)OC)c1Cl [Compound 147-60, 4-(N-But-1-yl-N-phenylmethyl-amino)-5-chloro-2-cyclopropyl-6-methoxycarbonyl-pyrimidine] | 70% | 10% | 80% | 40% | 10% | 80% | 100% | 40% | 80% | 0% | 20% | 30%
8 | CCC(C)N(Cc1ccccc1)c1nc(C2CC2)nc(C(=O)OC)c1Cl (stereo not drawn) [Compound 148-60, 4-(N-But-2-yl-N-phenylmethyl-amino)-5-chloro-2-cyclopropyl-6-methoxycarbonyl-pyrimidine] | 100% | 10% | 80% | 40% | 0% | 90% | 80% | 0% | 80% | 0% | 0% | 30%
9 | COC(=O)c1nc(C2CC2)nc(N(Cc2ccccc2)C[Si](C)(C)C)c1Cl [Compound 150-60, 5-Chloro-2-cyclopropyl-6-methoxycarbonyl-4-(N-phenylmethyl-N-trimethylsilylmethyl-amino)pyrimidine] | 100% | 40% | 90% | 70% | 60% | 90% | 80% | 20% | 70% | 20% | 40% | 90%
10 | C=CCN(Cc1ccccc1)c1nc(C2CC2)nc(C(=O)OC)c1Cl [Compound 151-60, 5-Chloro-2-cyclopropyl-6-methoxycarbonyl-4-(N-phenylmethyl-N-prop-2-en-1-yl-amino)-pyrimidine] | 100% | 20% | 80% | 80% | 40% | 70% | 40% | 20% | 10% | 10% | 20% | 60%
11 | C=CCN(Cc1ccccc1F)c1nc(C2CC2)nc(C(=O)OC)c1Cl [Compound 151-64, 5-Chloro-2-cyclo-propyl-4-[N(2-fluorophenyl)methyl-N-prop-2-enyl-amino]-6-methoxy-carbonylpyrimidine] | 100% | 10% | 90% | 90% | 40% | 100% | 30% | 0% | 0% | 0% | 0% | 30%
